Measurements reported in US20260198495A1, “BINARY INSECTICIDE COMPOSITION AND USE THEREOF” (SHENYANG SINOCHEM AGROCHEMICALS R & D CO., LTD., priority 2022, published 2026).
Converted amounts (≈) assume the structure as drawn.

What was measured:
Format in all cases: in vivo
[1] = tested on: Aphis gossypii Glover nymphs; assay: Joint toxicity of I-72 + organophosphorus insecticides, cotton leaf spraying, Example 17, Table 17; conditions: nymphs, cotton leaf spraying, 48 h, A = compound I-72, B = diazinon, read-out: LC50
Procedure: Test target: Aphis gossypii Glover nymphs, a sensitive strain reared indoors.
(§1) Preparation of the pesticide solution: according to different test requirements, the test samples were accurately weighed respectively with an electronic analytical balance. The technical pesticides were dissolved in acetone, and then diluted with 0.1% Tween 80 water into a series of pesticide solutions with a certain concentration gradient according to the experimental design dosage.
Experimental method: first, cotton leaves with uniform and consistent Aphis gossypii were selected, with about 20 insects on each leaf. Then, they were evenly sprayed with the pesticide solution in the order from low dosage to high dosage according to the experimental design, with 1.5 mL for each leaf and 3 replicates for each treatment. In addition, a blank control was set up.
(§2) The treated test materials were placed in an observation room, and the temperature, humidity and illumination of the observation room could be adjusted as needed. The number of dead and live insects was investigated 48 hours later. The corrected mortality rate was calculated using the Abbott's formula, and statistical analysis was performed with the DPS data processing software to obtain the toxicity regression equation, LC50 value and 95% confidence limit of each single test pesticide and each mixture of different ratios. Then, the co-toxicity coefficient of each ratio was calculated using the Sun Y-P method to evaluate the mixing effect (the same as in Example 1).

[2] = tested on: 3rd-instar larvae of Spodoptera frugiperda; assay: Joint toxicity of I-72 + spinosad, corn leaf dipping, Example 10, Table 10; conditions: Spodoptera frugiperda, foliar, 72 h, A = compound I-72, B = spinosad, read-out: LC50
Excerpt: Test subject: 3rd-instar larvae of Spodoptera frugiperda, a sensitive strain reared indoors.
Experimental method: the dipping method was adopted. The corn leaves cultivated in the greenhouse were taken, cut into leaf segments of 5 cm long, dipped in the prepared pesticide solution for 10 s, and then cut into small pieces of 1.5 cm×1.5 cm after natural air-drying in the shade. These pieces were placed in a 24-well culture plate, and the standard test insects were introduced, with 48 insects for each treatment. The treated test insects were placed in an observation room under certain conditions. The reaction of the test insects was regularly observed, and the number of dead and live insects was investigated 72 h later.
The test conditions, the preparation of the pesticide solution and the evaluation method were the same as those in Example 1.

[3] = tested on: 3rd-instar larvae of Ostrinia furnacalis Guenee; assay: Joint toxicity of I-72 + organophosphorus insecticides, corn stalk dipping, Example 21, Table 21; conditions: 3rd-instar larvae, corn stalk dipping, 48 h, A = compound I-72, B = acephate, read-out: LC50
Procedure: Test target: 3rd-instar larvae of Ostrinia furnacalis Guenee, a sensitive strain reared indoors.
as §1
(§3) Experimental method: first, fresh tender corn stalks cultivated in the greenhouse were selected, cut into small sections of 3 cm, and dipped in the prepared pesticide solution for 10 s in the order from low dosage to high dosage according to the experimental design. After natural air-drying in the shade, they were placed in a 9-cm-diameter Petri dish with filter paper, and uniform and healthy test insects were introduced, with 10 insects for each treatment and 3 replicates for each treatment. In addition, a blank control was set up.
as §2

[4] = tested on: 2nd-instar larvae of Chilo suppressalis (Walker); assay: Joint toxicity of I-72 + abamectin, rice stalk spraying, Example 7, Table 7; conditions: Chilo suppressalis, resistant 2nd-instar larvae, 72 h, A = compound I-72, B = abamectin, read-out: LC50
Procedure: Test target: 2nd-instar larvae of Chilo suppressalis (Walker). The insect source was collected from Nanchang, Jiangxi Province, and it is the 11th generation continuously cultured indoors, with a relatively high resistance level to amide pesticides such as chlorantraniliprole.
Test conditions: temperature: 25-27° C., humidity: RH 60%, and illumination: L:D=14:10
Preparation method: the test pesticides were accurately weighed respectively with an electronic analytical balance. After the two technical materials were respectively added into an appropriate amount of solvent and completely dissolved, the stock solution of the required concentration was prepared with water containing 0.1% Tween 80. The stock solutions of the two active ingredients were mixed in a certain ratio to prepare a mixed solution, which was then diluted respectively into a series of pesticide solutions with a certain concentration gradient according to the experimental design dosage.
Experimental method: the spraying method was adopted. […] The corrected mortality rate was calculated using the Abbott's formula, and the DPS data processing software was used for statistical analysis to calculate the toxicities (LC50 values) of the single test pesticides and the mixtures under the test ratios. […]

[5] = tested on: 3rd-instar larvae of Ostrinia furnacalis Guenee; assay: Joint toxicity of I-72 + pymetrozine, Example 79, Table 79; conditions: A = compound I-72, B = pymetrozine, corn stem dipping, 72 hours, read-out: LC50
Procedure: Test target: 3rd-instar larvae of Ostrinia furnacalis Guenee.
as §1
as §3, with “first,” for “first, fresh”, “stems” for “stalks cultivated in the greenhouse”, “selected” for “selected, cut into small sections of 3 cm,”
(§4) The treated test materials were placed in an observation room, and the temperature, humidity and illumination of the observation room could be adjusted as needed. The number of dead and live insects was investigated 72 hours later. […] Then, the co-toxicity coefficient of each ratio was calculated using the Sun Y-P method to evaluate the mixing effect (the same as in Example 1).

[6] = tested on: Frankliniella occidentalis nymphs; assay: whole plant or invertebrate; conditions: foliar, A = compound I-72, B = dinotefuran, kidney bean leaf dipping, 48 hours, read-out: LC50
Procedure: Test target: Frankliniella occidentalis nymphs.
as §1
as §3, with “first, kidney bean leaves” for “first, fresh tender corn stalks cultivated in the greenhouse”, “were selected” for “were selected, cut into small sections of 3 cm,”, “with 20-30” for “with 10”
as §4, with “48” for “72”

In the case of `CN(C(=O)c1ccc2c(c1)OC(F)(F)O2)c1cccc(C(=O)Nc2c(Br)cc(C(F)(C(F)(F)F)C(F)(F)F)cc2OC(F)F)c1F` [Compound I-72], the LC50 [1] is reported as 2.83 µg/mL, the LC50 [2] is reported as 0.0777 µg/mL and the LC50 [3] is reported as 1.19 µg/mL. For the same compound, the LC50 [4] was 0.811 µg/mL, the LC50 [5] was 0.801 µg/mL and the LC50 [6] was 2.41 µg/mL (≈ 3.25 µM).
